Assay results as given in publication PMC6594058, “A Research‐inspired biochemistry laboratory module–combining expression, purification, crystallization, structure‐solving, and characterization of a flavodoxin‐like protein” (Biochemistry and Molecular Biology Education, 2019).

Molecular target: T1, NrdI (Bacillus cereus, UniProt Q81G57)
T1 construct: untagged by purification route (IEX, SEC); pET-22b(+) XbaI/HindIII; E. coli BL21(DE3)
T1 sequence (Q81G57 1-119): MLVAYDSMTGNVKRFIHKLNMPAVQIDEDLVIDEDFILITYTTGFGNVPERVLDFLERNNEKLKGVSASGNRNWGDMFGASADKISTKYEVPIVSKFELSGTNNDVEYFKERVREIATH
Assay: X-ray crystallography (students re-solve previously collected semiquinone data); UV-vis of co-purified cofactor with dithionite titration
Type: binding
Settings: crystal in semiquinone state (FMNH•); 1.15 Å; UV-vis in 50 mM Tris-HCl pH 7.5; native bound cofactor

Cc1cc2nc3c(=O)[nH]c(=O)nc-3n(C[C@H](O)[C@H](O)[C@H](O)COP(=O)(O)O)c2cc1C [FMN] was tested, and the “X-ray crystallography (students re-solve previously collected semiquinone data);” value was “Overall structure of the B. cereus NrdI, with the FMN cofactor represented as sticks”.
